Source: patent publication US8105567B2, “Multidentate AZA ligands able to complex metal ions and the use thereof in diagnostics and therapy” (Bracco Imaging SpA, priority 2001, dated 2012)
One block for each compound: values may come before it.

Columns and labels:
PC-3 tumors = test: Biodistribution and tumor targeting of 177Lu complexes in the human PC-3 nude mouse model; format: in vivo; settings: 177Lu complex
Protocol: For biodistribution studies, the radiolabeled compounds were prepared as described above except that a 1:1 molar ratio of ligand to Lutetium was used to guarantee complete chelation of all starting ligand. […] The remaining solution was further diluted to the required radioconcentration using Bacteriostatic saline/ASCOR L500® Ascorbic Acid Injection USP mixed in a 9 to 1 [v/v]) ratio.
10-50 μCi of the HPLC purified compounds were administered to each mouse by i.v. tail vein injection, n=4 per group. At 1 h, 1 and 7 days post injection, the mice were terminated and the organs and tissues were harvested. Radioactivity was assayed in a gamma counter. The data was expressed as percentage of the total administered radioactivity (% ID) for the urine combined with the bladder, as well as for the blood pool; and percentage of the total administered radioactivity per gram (% ID/g) for all the other tested organs

[1] = Potentiometric measurements: protonation constants of the ligand; format: physicochemical; settings: 0.1 mol dm^−3 NMe4NO3, 298.1 K
Protocol: (§1) All the pH metric measurements (pH=−log [H^+]) were carried out in degassed 0.1 mol dm^−3 NMe4NO3 solutions, at 298.1 K, by using a Metrohm 670 Titroprocessor equipped with a Metrohm 6.0203.100 combined pH electrode. Prior to each potentiometric titration, the combined Metrohm electrode was calibrated as a hydrogen concentration probe by titrating known amounts of HCl with CO2-free NMe4OH solutions and determining the equivalent point by the Gran's method which allows to determine the standard potential E^o, and the ionic product of water. In the complexation experiments the metal ion concentration was about 80% of the ligand concentration. At least three measurements (about 100 data points each one) were performed for each system in the pH range 2.5-10.5 and the relevant e.m.f. data were treated by means of the computer programs […] and […] which furnished the protonation and the complexation constants.

[2] = reference complex with two water molecules in the inner sphere; cited from earlier work
[3] = Affinity for lactate ions (titration of 1 mM Gd(III) complex, ternary complex formation); format: physicochemical; settings: for KA (association constant) with lactate ions: titration with lactate ions
Protocol: (§2) A test, to further evaluate the lack of formation of ternary complexes was performed. As a non-limiting example, we measured the affinity of the compound of example 1 for lactate and phosphate ions. The determination was performed directly by adding increasing amounts of each anion to a 1 mM solution of the Gd(III) complex.
Conversely analogous titrations of Gd-DO3A and Gd-DO3MA (both endowed with q=2) with lactate ions yielded KA values of 150 M^−1 and 110 M^−1, respectively.

[4] = Relaxivity of the Gd(III) complex; format: physicochemical; settings: 25° C., pH 7 and 20 MHz
Protocol: The relaxivity determined at 25° C., pH 7 and 20 MHz for said complex is 7.1 mM^−1 s^−1.

[5] = Potentiometric measurements: Gd complexation constant; format: physicochemical
Protocol: as §1

[6] = Exchange time (tM) by transverse water 17O NMR relaxation time at variable temperature; format: physicochemical; settings: 298 K
Excerpt: The exchange time (tM) value of the Gd(III) complex of the example 1 has been assessed by measuring the transverse water ^17O NMR relaxation time at variable temperature according to the procedure described by Aime et al., in the above cited literature.
Obtained value turned out to be 90 ns at 298 K. Albeit the optimal value (about 30 ns) has not been attained, this exchange rate can be considered quite fast, especially if compared with that of (Gd-DO3A), the Gd(III) complex of reference, with two water molecules in the inner sphere, whose tM value is 160 ns.

[7] = Relaxivity as a function of the pH; format: physicochemical; settings: FIG. 3
Excerpt: The relaxivity of this complex was further tested as a function of the pH.

[8] = NMRD profile fitting (molecular reorientational time); format: physicochemical; settings: calculated from fitting of the NMRD profile
[9] = Affinity for phosphate ions (titration of 1 mM Gd(III) complex, ternary complex formation); format: physicochemical; settings: increasing amounts of anion added to 1 mM complex, FIG. 4
Protocol: as §2

Compound: CC1(N(CC(=O)O)CC(=O)O)CN(CC(=O)O)[C@@H]2CCCC[C@H]2N(CC(=O)O)C1 [Compound 94]
clearance of Lu-177 from the body (in words) (PC-3 tumors; PC-3 nude mouse): rapidly cleared from the body with little residual localization in any organs or tissue
Blood 1 h % ID (PC-3 tumors; i.v., 1 h post injection, blood): 0.39 ± 0.29 % ID
Blood 24 h % ID (PC-3 tumors; i.v., 24 h post injection, blood): 0.01 ± 0.01 % ID
Blood 7 d % ID (*72 h timepoint) (PC-3 tumors; i.v., 72 h timepoint, blood): 0.00 ± 0.00 % ID

Compound: O=C([O-])CN1CCNCCN(CC(=O)[O-])CCN(CC(=O)[O-])CC1.[Gd+3] [Gd-DO3A, reference compound]
tM value (reference complex) [2]: 160 ns
KA (association constant) with lactate ions [3]: 150 M⁻¹

Compound: CC(C(=O)[O-])N1CCNCCN(C(C)C(=O)[O-])CCN(C(C)C(=O)[O-])CC1.[Gd+3] (stereo not drawn) [Gd-DO3MA, reference compound]
KA (association constant) with lactate ions [3]: 110 M⁻¹

Now from value to compound, other results behind:

Log KH ([1]; H2L + H = H3L): 4.09 (3)
Log KH ([1]; H3L + H = H4L): 2.60 (3)
Log KH ([1]; H4L + H = H5L): 1.44 (4)
Log KH ([1]; H + L = HL): 11.80 (2)
Log KH ([1]; HL + H = H2L): 6.55 (2)
Compound: CC1(N(CC(=O)O)CC(=O)O)CN(CC(=O)O)CCN(CC(=O)O)C1 [Example 1, 1,4-Bis(carboxymethyl)-6-[bis(carboxymethyl)amino]-6-methyl-perhydro-1,4-diazepine]

relaxivity [4]: 7.1 mM⁻¹ s⁻¹
LogKGd ([5]; M + L = ML, 0.1 mol dm^−3 NMe4NO3, 298.1 K): 21.52 (1)
LogKGd (conditional, pH 7.4) ([5]; conditional, pH 7.4): LogKGd (conditional, pH 7.4) = 17.06
relaxation rate over the investigated pH range [7]: substantially constant
tR (molecular reorientational time) [8]: 80 ps
Compound: Gd(III) Complex of 1,4-Bis(carboxymethylmethyl)-6-[bis(hydroxycarbonyl-methyl)amino]-6-methylperhydro-1,4-diazepine [Gd(III) complex of Example 1]
exchange time (tM) [6]: 90 ns
interaction with lactate ions ([3]; increasing amounts of anion added to 1 mM complex, FIG. 4): complete absence of interaction
KA (association constant) with lactate ions [3]: does not show any measurable association constant
interaction with phosphate ions [9]: complete absence of interaction
